The first assay has as its system Streptococcus mutans. As to the kind of experiment: Antibacterial activity against Streptococcus mutans ATCC 25175 assessed as effect on planktonic growth at 5.5 ug/ml after 20 hrs relative to control. In kind it is functional.
Conditions: not given
Turning to `COc1ccc(Br)cc1C1=C(Br)C(=O)N(CC(C)C)/C1=C/c1cccc(Cl)c1`, the Activity is on record as 2.8%.

The next assay has as its system Staphylococcus epidermidis. As to the kind of experiment: Antibacterial activity against Staphylococcus epidermidis ATCC 35547 assessed as effect on planktonic growth at 2.73 ug/ml after 20 hrs relative to control. In kind it is functional.
Conditions: not given
Turning to `COc1ccc(Br)cc1C1=C(Br)C(=O)N(CC(C)C)/C1=C/c1cccc(Cl)c1`, the Activity is on record as 11.4%.

For another assay, the system named is Staphylococcus epidermidis. As to the kind of experiment: Antibacterial activity against Staphylococcus epidermidis ATCC 35547 assessed as effect on planktonic growth at 0.68 ug/ml after 20 hrs relative to control. In kind it is functional.
Conditions: not given
On to `COc1ccc(Br)cc1C1=C(Br)C(=O)N(CC(C)C)/C1=C/c1cccc(Cl)c1`, for which the Activity is reported as 4.8%.

A further assay has as its system Pseudomonas aeruginosa. As to the kind of experiment: Antibacterial activity against Pseudomonas aeruginosa ATCC 27853 assessed as effect on planktonic growth at 0.17 ug/ml after 20 hrs relative to control. In kind it is functional.
Conditions: not given
Regarding `COc1ccc(Br)cc1C1=C(Br)C(=O)N(CC(C)C)/C1=C/c1cccc(Cl)c1`, the Activity is 1.8%.

The next assay concerns Staphylococcus epidermidis. As to the kind of experiment: Antibacterial activity against Staphylococcus epidermidis ATCC 35547 assessed as effect on planktonic growth at 87.5 ug/ml after 20 hrs relative to control. The assay is classed as functional.
Conditions: not given
With `COc1ccc(Br)cc1C1=C(Br)C(=O)N(CC(C)C)/C1=C/c1cccc(Cl)c1`, the Activity came to 70.2%.

In a further assay the test system is Staphylococcus aureus. As to the kind of experiment: Antibacterial activity against Staphylococcus aureus ATCC 25923 assessed as effect on planktonic growth at 0.34 ug/ml after 20 hrs relative to control.
Conditions: not given
In kind it is functional.
As to `COc1ccc(Br)cc1C1=C(Br)C(=O)N(CC(C)C)/C1=C/c1cccc(Cl)c1`, the Activity is -17.1%.

The next assay deals with Pseudomonas aeruginosa. As to the kind of experiment: Antibacterial activity against Pseudomonas aeruginosa ATCC 27853 assessed as inhibition of biofilm formation after 20 hrs by crystal-violet staining method. The assay is classed as functional, organism-based.
Conditions: not given
For the compound `COc1ccc(Br)cc1C1=C(Br)C(=O)N(CC(C)C)/C1=C/c1cccc(Cl)c1`, the inhibition entry is “Dose-dependent effect”.

The same assay, now with this note: ATCC 27853, 20 h.
What is called IC50 is the midpoint of a concentration-inhibition curve. For `COc1ccc(Br)cc1C1=C(Br)C(=O)N(CC(C)C)/C1=C/c1cccc(Cl)c1`, the concentration for half-maximal inhibition (IC50) was over 87.5 µg/mL.

For the next assay, the system named is Staphylococcus epidermidis. As to the kind of experiment: Antibacterial activity against Staphylococcus epidermidis ATCC 35547 assessed as effect on planktonic growth at 21.9 ug/ml after 20 hrs relative to control. The assay is classed as functional.
Conditions: not given
`COc1ccc(Br)cc1C1=C(Br)C(=O)N(CC(C)C)/C1=C/c1cccc(Cl)c1`: the Activity is recorded as 27.7%.

In the next assay the test system is Pseudomonas aeruginosa. As to the kind of experiment: Antibacterial activity against Pseudomonas aeruginosa ATCC 27853 assessed as effect on planktonic growth at 1.37 ug/ml after 20 hrs relative to control. In kind it is functional.
Conditions: not given
As to `COc1ccc(Br)cc1C1=C(Br)C(=O)N(CC(C)C)/C1=C/c1cccc(Cl)c1`, the Activity was 5%.

Another assay deals with Staphylococcus epidermidis. As to the kind of experiment: Antibacterial activity against Staphylococcus epidermidis ATCC 35547 assessed as effect on planktonic growth at 0.34 ug/ml after 20 hrs relative to control. The assay is classed as functional.
Conditions: not given
On to `COc1ccc(Br)cc1C1=C(Br)C(=O)N(CC(C)C)/C1=C/c1cccc(Cl)c1`, for which the Activity worked out at 4.9%.

The next assay relates to Staphylococcus epidermidis. As to the kind of experiment: Antibacterial activity against Staphylococcus epidermidis ATCC 35547 assessed as effect on planktonic growth at 0.17 ug/ml after 20 hrs relative to control. The assay is classed as functional.
Conditions: not given
For `COc1ccc(Br)cc1C1=C(Br)C(=O)N(CC(C)C)/C1=C/c1cccc(Cl)c1`, the Activity stood at 2.1%.

Another assay has as its system Staphylococcus aureus. As to the kind of experiment: Antibacterial activity against Staphylococcus aureus ATCC 25923 assessed as effect on planktonic growth at 1.37 ug/ml after 20 hrs relative to control. In kind it is functional.
Conditions: not given
For the compound `COc1ccc(Br)cc1C1=C(Br)C(=O)N(CC(C)C)/C1=C/c1cccc(Cl)c1`, the Activity was -17.8%.

In another assay the test system is Staphylococcus aureus. As to the kind of experiment: Antibacterial activity against Staphylococcus aureus ATCC 25923 assessed as effect on planktonic growth at 0.68 ug/ml after 20 hrs relative to control.
Conditions: not given
In kind it is functional.
With `COc1ccc(Br)cc1C1=C(Br)C(=O)N(CC(C)C)/C1=C/c1cccc(Cl)c1`, the Activity is reported as -19.6%.

The subject of another assay is Streptococcus mutans. As to the kind of experiment: Antibacterial activity against Streptococcus mutans ATCC 25175 assessed as effect on planktonic growth at 87.5 ug/ml after 20 hrs relative to control.
Conditions: not given
In kind it is functional.
Regarding `COc1ccc(Br)cc1C1=C(Br)C(=O)N(CC(C)C)/C1=C/c1cccc(Cl)c1`, the Activity is on record as -7.3%.

The test system of a further assay is Streptococcus mutans. As to the kind of experiment: Antibacterial activity against Streptococcus mutans ATCC 25175 assessed as effect on planktonic growth at 21.9 ug/ml after 20 hrs relative to control.
Conditions: not given
In kind it is functional.
As to `COc1ccc(Br)cc1C1=C(Br)C(=O)N(CC(C)C)/C1=C/c1cccc(Cl)c1`, the Activity is reported as -7.5%.

A further assay relates to Pseudomonas aeruginosa. As to the kind of experiment: Antibacterial activity against Pseudomonas aeruginosa ATCC 27853 assessed as effect on planktonic growth at 10.9 ug/ml after 20 hrs relative to control. The assay is classed as functional.
Conditions: not given
As to `COc1ccc(Br)cc1C1=C(Br)C(=O)N(CC(C)C)/C1=C/c1cccc(Cl)c1`, the Activity was -7%.

For another assay, the system named is Staphylococcus aureus. As to the kind of experiment: Antibacterial activity against Staphylococcus aureus ATCC 25923 assessed as effect on planktonic growth at 0.17 ug/ml after 20 hrs relative to control. The assay is classed as functional.
Conditions: not given
As to `COc1ccc(Br)cc1C1=C(Br)C(=O)N(CC(C)C)/C1=C/c1cccc(Cl)c1`, the Activity was -18.7%.

In another assay the test system is Pseudomonas aeruginosa. As to the kind of experiment: Antibacterial activity against Pseudomonas aeruginosa ATCC 27853 assessed as effect on planktonic growth at 2.73 ug/ml after 20 hrs relative to control.
Conditions: not given
The assay is classed as functional.
Turning to `COc1ccc(Br)cc1C1=C(Br)C(=O)N(CC(C)C)/C1=C/c1cccc(Cl)c1`, the Activity was determined as 4.7%.

The next assay relates to Streptococcus mutans. As to the kind of experiment: Antibacterial activity against Streptococcus mutans ATCC 25175 assessed as effect on planktonic growth at 1.37 ug/ml after 20 hrs relative to control. The assay is classed as functional.
Conditions: not given
`COc1ccc(Br)cc1C1=C(Br)C(=O)N(CC(C)C)/C1=C/c1cccc(Cl)c1`: the Activity came to 15.3%.

The next assay concerns Staphylococcus epidermidis. As to the kind of experiment: Antibacterial activity against Staphylococcus epidermidis ATCC 35547 assessed as effect on planktonic growth at 5.5 ug/ml after 20 hrs relative to control. In kind it is functional.
Conditions: not given
Regarding `COc1ccc(Br)cc1C1=C(Br)C(=O)N(CC(C)C)/C1=C/c1cccc(Cl)c1`, the Activity was 21.1%.

The next assay relates to Pseudomonas aeruginosa. As to the kind of experiment: Antibacterial activity against Pseudomonas aeruginosa ATCC 27853 assessed as effect on planktonic growth at 21.9 ug/ml after 20 hrs relative to control. The assay is classed as functional.
Conditions: not given
On to `COc1ccc(Br)cc1C1=C(Br)C(=O)N(CC(C)C)/C1=C/c1cccc(Cl)c1`, for which the Activity is recorded as -4.5%.

The record behind these values is ChEMBL document CHEMBL3112480, “γ-Alkylidene-γ-lactones and isobutylpyrrol-2(5H)-ones analogues to rubrolides as inhibitors of biofilm formation by gram-positive and gram-negative bacteria” (Bioorg Med Chem Lett, 2014).
